Experimental data from US8329720B1 (Pisgah Laboratories, Inc., priority 2007, dated 2012).

How the values were obtained:
[1] = Intrinsic dissolution dose dumping profile (ethanol concentration in acidic media, FDA protocol); assay type: physicochemical; conditions: for dose dumping dissolution profile: 0.1N HCl with 0, 5, 20 and 40% ethanol; for active released: in approximately sixty minutes; for release: 40% EtOH in 0.1N HCl; for dose dumping profile at the 5% ethanol condition: 5% ethanol in 0.1N HCl; for dose dumping profile at the 20% ethanol condition: 20% ethanol in 0.1N HCl
Source text: A general overview of this concern may be found at http://www.fda.gov/ohrms/dockets/AC/05/slides/2005-4187S2—02_Hussain.ppt. This Oct. 26, 2005 overview presentation by the deputy director OPS/CDER of the FDA and entitled “Preventing Alcohol Induced Dose Dumping is a Desired Product Design Feature” describes the dose-dumping phenomenon. Dose dumping can be employed by those with the deliberate intention of abusing the drug, but may also occur during the normal/moderate consumption of alcohol while taking a prescribed medication. Simply, dose dumping is that condition “in which the complete dose may be more rapidly released from the dosage form than intended, creating a potential safety risk”. Clearly, with the opioid narcotics, dose dumping for the intention of experiencing the “high” or rush, may have severe, even deadly consequences. The presentation further categorizes the results from dose dumping testing as either vulnerable, rugged or uncertain. If the dissolution profile in the presence of alcohol accelerates the release of the active ingredient, the product is classified as vulnerable and would likely not receive FDA market approval. In contrast, a rugged product design is achieved when the dissolution profile of the drug substance, again in the presence of alcohol, is identical to or is available to a lesser extent as compared to the control. The testing regimen recommended within the FDA's draft guidance includes determining the dissolution profile in 0.1N HCl solutions wherein the sample is tested in the medium and at increasing levels of ethanol, specifically at 5, 20 and 40% alcohol.
(§1) The opioid salts of the present invention were tested to determine their dissolution profile as a function of pH, and as a function of ethanol concentration in acidic media (dose dumping). To perform these experiments the buffered dissolution media and acidic ethanol solutions were prepared as identified herein, “Preparation of Solutions”. The test procedure was derived from the procedures cited in the United States Pharmacopeia and National Formulary (USP), numbers <1087> and <711>. The dose dumping procedure was adopted from the United States Food and Drug Administration's guidance regarding the dose dumping of oxymorphone. The sampling interval and regimen was defined and each sample analyzed by HPLC. Results from the HPLC analyses were plotted as a function of time and dissolution condition (FIG. 37 through FIG. 97 inclusive, and FIGS. 102-105, 109, 110, 114 and 115). This procedure was used to obtain the pH and dose dumping dissolution profiles disclosed herein. […] All activities within the procedure were conducted and executed for each of the compounds reported herein. Unless otherwise stated HPLC measurements were done and reported at ambient temperature and dissolution testing was done nominally at 37° C.
The following procedures were derived from the FDA Draft Guidance for Oxymorphone Hydrochloride (recommended in November, 2007).
(§2) The material which is to be subjected to dissolution is weighed using an analytical balance. 85.00-95.00 mg of the analyte was weighed and transferred to an International Crystals Laboratories fixed/static disk 316 stainless die with a 0.8 cm diameter die cavity. A hardened steel punch was then inserted into the cavity and the material was compressed at 2000 psi for 4-5 minutes using a bench top hydraulic press. The punch is then removed to expose the 0.5 cm^2 pellet surface. A Viton gasket is then placed around the threaded shoulder of the die and a polypropylene cap is threaded onto the die. This process can be repeated to generate as many pellets as is necessary for the experiment.
A Distek Dissolution System equipped with a model number TCS0200C temperature control system, was filled with water and set to a temperature of 37.3° C. The vessel cavities were then equipped with four 1 L flat-bottomed Distek dissolution vessels.

[2] = Intrinsic dissolution profile as a function of pH; assay type: physicochemical; conditions: result in words; for pH dissolution profile: 0.1N HCl (pH 1), pH 4.5 acetate buffer, pH 6.8 phosphate buffer, water, 37° C.; for dissolution behavior at the low pH condition: 0.1N HCl
Description: as §1
The following procedures were derived from USP <1087> Intrinsic Dissolution and USP <711> Dissolution methods, as well as manufacturer recommended procedures for use of the International Crystals Laboratories intrinsic dissolution disks.
as §2, with “45.00-55” for “85.00-95.00”
A Distek Dissolution System equipped with a model number TCS0200C temperature control system was filled with water and set to a temperature of 37.3° C. The vessel cavities were then equipped with four 1 L flat-bottomed Distek dissolution vessels. Four vessels were then filled with 500 mL of the following media: 0.1N HCl, pH 4.5 acetate buffer, pH 6.8 phosphate buffer, and USP grade water. The solutions were allowed to warm in the water bath for approximately 1 hour, but not exceeding 3 hours, or until the temperature of the media matched that of the water bath. Paddles were then mounted to the Distek stirring apparatus above the four dissolution vessels such that the distance between the paddle and the die face is 1 inch. The paddle speed is then set to 50 RPM.
The pellet prepared as described above was submerged into a vessel prepared as described above, with the pellet surface facing up (metal die up, polypropylene cap facing down). Forceps are used to aid this process so that the pellet apparatus can be gently placed into the bottom of the vessel. A timer is used to track the sampling intervals, and is started when the pellet is dropped into the solution. The lid to the dissolution apparatus is then lowered and the stirring apparatus is activated. Some planning is required in spacing out pellet drops such that each vessel can be sampled at the desired time intervals. Sampling is done by aspirating 10 mL of the solution using a Popper® Micro-Mate® Interchangeable Hypodermic Syringe equipped with a Vortex Pharma Group 10 micron cannula porous filter. This filter should be replaced after each use. Although sampling intervals can change from experiment to experiment, the following has been heavily utilized for the experiments described herein.

[3] = Modified dose dumping protocol: ethanol solutions in the absence of the 0.1N HCl media

CN(C)CCCN1c2ccccc2CCc2ccccc21.CN(C)CCCN1c2ccccc2CCc2ccccc21.O=C(O)c1cc2ccccc2c(Cc2c(O)c(C(=O)O)cc3ccccc23)c1O [imipramine pamoate, reference compound]
dose dumping dissolution profile ([1]; result in words): exhibited dose dumping properties

Oxycodone Xinafoate
pH dissolution profile [2]: poor dissolution profile at pH 1 with a gradual release as the pH increases | dose dumping dissolution profile ([1]; result in words): dose dumps immediately at the higher EtOH concentrations

COc1ccc2c3c1O[C@H]1C(=O)CC[C@@]4(O)[C@@H](C2)N(C)CC[C@]314.Cl [oxycodone hydrochloride, reference compound]
pH dissolution profile [2]: immediate release (IR) characteristics | amount of oxycodone extracted / opiate immediately released ([3]; 40% EtOH (about 80 proof), no 0.1N HCl): about 50% | dose dumping dissolution profile ([1]; result in words): apparent solution equilibrium was obtained within minutes | dissolution in the control condition ([1]; 0.1 N HCl without EtOH, result in words): complete dissolution within minutes | enhancement of the release profile by the acidic media ([1]; at each ethanol level, comparing FIGS. 58 and 59): more than 20 % (absolute)

Oxycodone Pamoate [amorphous oxycodone pamoate]
dissolution profile as a function of ethanol concentration ([3]; 0.1N HCl with 0% EtOH, and 5, 20, 40% EtOH without acid, result in words): slow linear process | opiate released ([3]; 40% EtOH, over about one hour): approximately 60% | pamoate released (apparent pamoate equilibrium solubility) ([3]; 40% ethanol condition, FIG. 62): about 85% | time to apparent pamoate equilibrium solubility ([3]; 40% ethanol condition, FIG. 62): approximately 45 minutes | time to complete (full) release of the opiate ([1]; 0.1N HCl media, no EtOH): about one | dose dumping dissolution profile ([1]; result in words): no dose dumping benefit

Amorphous Hydrocodone Pamoate Form I [amorphous Form I]
dose dumping dissolution profile ([1]; result in words): somewhat erratic compared with Form II

Hydrocodone Xinafoate
pH dissolution profile [2]: extended release at pH 1, and independent release as the pH increases

Amorphous Hydrocodone Pamoate Acetone Solvate [solvated amorphous form]
dose dumping dissolution profile ([1]; result in words): somewhat erratic compared with Form II

Oxycodone Pamoate [polymorphic form of oxycodone pamoate]
pH dissolution profile [2]: essentially identical pH dissolution profile as the amorphous form | active released ([1]; 0.1N HCl containing 5% EtOH): about 70% | active released ([1]; 0.1N HCl): about 70% | equilibrium solubility (release) ([1]; 20% EtOH in 0.1N HCl, reached in about 30 minutes): ~10% | release ([1]; after 3 hours): approximately 40% | release ([1]; after about 80 minutes): ~10%

COc1ccc2c3c1O[C@H]1C(=O)CC[C@H]4[C@@H](C2)N(C)CC[C@]314.O=C(O)C(O)C(O)C(=O)O [hydrocodone bitartrate, reference compound]
pH dissolution profile [2]: immediate release (IR) characteristics | dose dumping dissolution profile ([1]; result in words): exhibit dose dumping propensities

Polymorphic Hydrocodone Pamoate Form II
dissolution behavior at the low pH condition [2]: slower release than Form I | dose dumping profile at the 5% ethanol condition ([1]; result in words): essentially identical to the 0.1N HCl condition | dose dumping profile at the 20% ethanol condition ([1]; result in words): did not accelerate dose dumping | dose dumping profile at the 40% ethanol condition ([1]; 40% ethanol in 0.1N HCl, result in words): did not promote dose dumping

Amorphous Hydrocodone Pamoate Form II
dissolution behavior at the low pH condition [2]: ranks between that observed for Form I and the acetone solvated form | dose dumping profile at the 5% ethanol condition ([1]; result in words): slow (and essentially identical) dissolution response | dose dumping profile at the 20% ethanol condition ([1]; result in words): slow (and essentially identical) dissolution response
